Reference: patent US10561676B2, “Method for treating cancer using dual antagonists of CXCR1 and CXCR2” (Syntrix Biosystems, Inc., priority 2018, dated 2020)

Experiments:
[1] = tested on: isolated human neutrophils; test: CXCL8-mediated intracellular calcium flux in isolated human neutrophils; type: cell-based; settings: Neutrophil, 25 nM CXCL8, mean ±SE
Experimental: Cells were incubated for 30 min at 37° C. […] The test compound or DMSO (control) was added again at the same concentrations that were used during cell loading.
The maximum change in fluorescence, expressed in arbitrary units over baseline (Max-Min), was used to determine the CXCL8 response.

[2] = Stability in human liver microsomes (NADPH-dependent); type: in vitro ADME
Experimental: The compounds were incubated in duplicate with human liver microsomes at 37° C. The reaction contained microsomal protein in 100 mM potassium phosphate, 2 mM NADPH, 3 mM MgCl2, pH 7.4. A control was run for each compound omitting NADPH to detect NADPH-independent degradation. An aliquot was removed from each experimental and control reaction at 0, 10, 20, 30, and 60 minutes and mixed with an equal volume of ice-cold Stop Solution (0.3% acetic acid in acetonitrile containing haloperidol, diclofenac, or other internal standard). Stopped reactions were incubated for at least ten minutes at −20° C., and an additional volume of water was added. The samples were centrifuged to remove precipitated protein, and the supernatants were analyzed by LCMS/MS to quantitate the remaining compound. Data were converted to percent remaining by dividing by the time zero concentration value. Data were fit to a first-order decay model to determine half-life. Intrinsic clearance was calculated from the half-life and the protein concentrations: CLint=ln(2)/(t½[microsomal protein]). […] More surprising is that eliminating the ring nitrogen in SX-517 yielded a half-life even larger than that of SX-682. The results as a whole led to no SAR predictive of the surprising stability of SX-682.

CXCR2 = target: T1, CXCR2 (Homo sapiens, UniProt P25025); test: Wash-resistant inhibition of CXCL8-mediated calcium flux, CXCR2-transfected RBL cells; type: cell-based; settings: 30 min incubation at 0.4, 2, 10 μM, then washout
T1 construct: expressed in transfected cells
T1 sequence (P25025 1-360): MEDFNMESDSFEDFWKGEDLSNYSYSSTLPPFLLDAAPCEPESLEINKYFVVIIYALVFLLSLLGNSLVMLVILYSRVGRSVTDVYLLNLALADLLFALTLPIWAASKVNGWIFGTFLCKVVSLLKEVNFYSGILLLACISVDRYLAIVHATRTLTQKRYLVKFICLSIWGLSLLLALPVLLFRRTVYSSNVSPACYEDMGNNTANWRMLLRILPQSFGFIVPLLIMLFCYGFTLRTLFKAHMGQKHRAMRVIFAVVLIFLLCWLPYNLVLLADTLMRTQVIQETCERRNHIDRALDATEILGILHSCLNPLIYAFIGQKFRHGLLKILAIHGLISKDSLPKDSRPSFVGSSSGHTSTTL
Experimental: (§1) In order to test this hypothesis, RBL cells (10^7 cells/ml) stably transfected with either CXCR1 or CXCR2 were (1) incubated with SX-682 at various concentrations for 30 minutes at 37° C., (2) washed and resuspended in assay buffer (RPMI/2% serum) at room temperature, and (3) assayed for CXCL8-mediated calcium response at time points up to 12 h after inhibitor washout. The concentrations of SX-682 tested were 0 (positive control), 0 (negative control), 0.4, 2, and 10 μM. At 30 minutes before each time point, a 56.25 μl aliquot of the cells were removed and loaded for 30 minutes at room temperature in the dark with FLIPR™ 3 reagent (262.5 μl per tube). Following FLIPR™ 3 incubation, cells were assayed for CXCL8 mediated intracellular calcium release as described in Pharmacology Example 1.

Sprague-Dawley rats = test: Ozone rat model of pulmonary inflammation (neutrophil influx into BALF); type: in vivo
Experimental: SX-682 was assayed in an in vivo rat model of pulmonary inflammation. Activity in this model of pulmonary inflammation provides evidence that supports the use of SX-682 in the treatment of a number of pulmonary inflammatory diseases, including chronic obstructive pulmonary disease (COPD) and bronchopulmonary dysplasia (BPD). In this experiment, Sprague-Dawley rats (n=4 per cohort) were dosed intravenously only once at t=0 with either vehicle control (dimethylformamide/PEG400/saline, 40:40:20), positive inhibitor control (SX-576, 1 mg/kg) or the test compound (SX-682, 1 mg/kg). The rats were then placed in air (negative exposure group; vehicle control only) or 1 ppm ozone (positive exposure group; vehicle control, positive inhibitor control SX-576, and test compound SX-682) for 4 hours. The rats were then sacrificed at t=24 hours, and the bronchoalveolar lavage fluid (BALF) was collected. The cells were spun down, stained with Wright-Giemsa and counted. In the negative exposure group, no neutrophils were observed when stained. In the ozone exposed rats treated with vehicle however, there was a brisk influx of neutrophils of approximately 14,000 per mL of BALF (FIG. 5).

CXCR1 = target: T2, CXCR1 (Homo sapiens, UniProt P25024); test: Wash-resistant inhibition of CXCL8-mediated calcium flux, CXCR1-transfected RBL cells; type: cell-based; settings: 30 min incubation at 0.4, 2, 10 μM, then washout
T2 construct: expressed in transfected cells
T2 sequence (P25024 1-350): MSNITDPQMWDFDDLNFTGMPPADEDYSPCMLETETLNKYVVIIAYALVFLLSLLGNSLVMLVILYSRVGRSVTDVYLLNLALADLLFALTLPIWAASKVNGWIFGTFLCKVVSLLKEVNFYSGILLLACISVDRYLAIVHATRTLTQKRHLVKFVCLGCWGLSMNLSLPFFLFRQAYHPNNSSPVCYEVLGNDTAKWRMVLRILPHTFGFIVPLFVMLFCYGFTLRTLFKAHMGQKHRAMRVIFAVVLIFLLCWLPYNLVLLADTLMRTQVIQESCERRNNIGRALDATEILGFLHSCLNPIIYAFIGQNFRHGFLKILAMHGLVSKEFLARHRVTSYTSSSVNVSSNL
Experimental: as §1

[3] = tested on: Ptenpc−/−p53pc−/−Smad4pc−/− mice; test: Ptenpc−/−p53pc−/−Smad4pc−/− mouse model of castration resistant prostate cancer; type: in vivo; settings: 4-6 weeks
Experimental: The genetically engineered Ptenpc−/−p53pc−/−Smad4pc−/− mouse is a prostate-specific PB promoter-driven (PB-Cre4) conditional triple knockout model (i.e., prostate-specific deletion of all three tumor suppressors, Pten, p53 and Smad4 occurs in the ‘prostate cancer’ or ‘pc’). […] SX-682 was used as a spray dried dispersion (Formulation Example 1), and was administered to mice via oral gavage as a suspension in 0.5% aq. methylcellulose. Treatment was continued for 4-6 weeks and prostate weights measured to determine tumor burden. […] Mean+SE.

## O=C(Nc1ccc(F)cc1)c1cnc(SCc2cc(OC(F)(F)F)ccc2B(O)O)nc1 [SX-682, 2-(2-boronic acid-5-trifluoromethoxy-benzylsulfanyl)-pyrimidine-5-carboxylic acid (4-fluoro-phenyl)-amide]
[1]
  IC50: 55 ± 6 nM
[2]
  microsomal half-life larger than SX-671 or SX-576: 6 fold
[2]; pH 7.4, 37° C., NADPH-dependent, read-out: CLint, microsomal intrinsic clearance
  microsomal CLint: 2.1 µL/min/mg
CXCR2
  time inhibition of calcium flux is sustained after washout: at least 12 hours
Sprague-Dawley rats; 1 mg/kg i.v. once, 1 ppm ozone 4 hours, BALF at 24 hours
  influx of neutrophils into the lungs (BALF) vs vehicle: significantly decreased the influx of neutrophils
Sprague-Dawley rats; single dose of 1 mg/kg i.v.
  time inhibition of neutrophil influx into BALF is sustained: 24 h
CXCR1
  time inhibition of calcium flux is sustained after washout: at least 12 hours
[3]; 50 mg/kg b.i.d. oral gavage
  prostate weight (tumor burden), SX-682 alone: inhibited prostate cancer
[3]; SX-682 50 mg/kg b.i.d. oral + anti-PD1 and anti-CTLA4 200 μg each 3×/week
  prostate weight (tumor burden), SX-682 plus ICB: significantly better than control or either treatment alone
